We go through 14 compounds from US20220227763A1, “MICROBIOCIDAL DERIVATIVES” (SYNGENTA CROP PROTECTION AG, priority 2019, published 2022).

For data set [1], the system named is Mycosphaerella graminicola (Septoria tritici). Description: Mycosphaerella graminicola (Septoria tritici) / liquid culture (Septoria blotch). In kind it is cell-based. To be noted: Zymoseptoria tritici, growth inhibition determined photometrically 4-5 days after application, compared to untreated control. The procedure:
Example B5: Mycosphaerella graminicola (Septoria tritici)/Liquid Culture (Septoria blotch) Conidia of the fungus from cryogenic storage are directly mixed into nutrient broth (PDB potato dextrose broth). After placing a (DMSO) solution of test compound into a microtiter plate (96-well format), the nutrient broth containing the fungal spores is added. The test plates are incubated at 24° C. and the inhibition of growth is determined photometrically 4-5 days after application. […] […]-19.

One may read the melting point as the temperature, or range, at which the solid turns liquid. The term inhibition of growth denotes the share of the control response that was lost under treatment. The low end stands for a response near the control, the high end for a response far below the control.

`CC1(C)CCC1NC(=O)c1nc(Nc2cc(F)cc(F)c2)cc2cc[nH]c12` (stereo not shown) [Compound P-1, 5-(3,5-difluoroanilino)-N-(2,2-dimethylcyclobutyl)-1H-pyrrolo[2,3-c]pyridine-7-carboxamide] showed a melting point of 65 to 89 °C. For the same compound, the inhibition of growth at 20 ppm in data set [1] was not below 80%.

As for `CC1(C)CCC1NC(=O)c1nc(Nc2cc(F)nc(F)c2)cc2cc[nH]c12` (stereo not shown) [Compound P-2, 5-[(2,6-difluoro-4-pyridyl)amino]-N-(2,2-dimethylcyclobutyl)-1H-pyrrolo[2,3-c]pyridine-7-carboxamide], the melting point fell in the range of 115 to 148 °C. The inhibition of growth at 20 ppm in data set [1] is not below 80%.

The compound `Cn1cc(Nc2cc3cn[nH]c3c(C(=O)NC3CCC3(C)C)n2)cn1` (stereo not shown) [Compound P-4, N-(2,2-dimethylcyclobutyl)-5-[(1-methylpyrazol-4-yl)amino]-1H-pyrazolo[3,4-c]pyridine-7-carboxamide] returned a melting point of 158 to 166 °C.

`CC1(C)CCC1NC(=O)c1nc(Nc2cnsc2)cc2cn[nH]c12` (stereo not shown) [Compound P-5, N-(2,2-dimethylcyclobutyl)-5-(isothiazol-4-ylamino)-1H-pyrazolo[3,4-c]pyridine-7-carboxamide]: the melting point was 158 to 166 °C. In addition, in data set [1], the inhibition of growth at 20 ppm was not below 80%.

With `CC1(C)CCC1NC(=O)c1nc(Nc2cc(F)cc(F)c2)cc2cn[nH]c12` (stereo not shown) [Compound P-6, 5-(3,5-difluoroanilino)-N-(2,2-dimethylcyclobutyl)-1H-pyrazolo[3,4-c]pyridine-7-carboxamide], the melting point lay in the range of 167 to 176 °C. The compound also came in with an inhibition of growth at 20 ppm in data set [1] not below 80%.

Take `CC1(C)CCC1NC(=O)c1nc(Nc2ccnc(F)c2)cc2cn[nH]c12` (stereo not shown) [Compound P-7, N-(2,2-dimethylcyclobutyl)-5-[(2-fluoro-4-pyridyl)amino]-1H-pyrazolo[3,4-c]pyridine-7-carboxamide]: the melting point was in the range of 222 to 238 °C. Further, the inhibition of growth at 20 ppm in data set [1] was not below 80%.

For `CC1(C)CCC1NC(=O)c1nc(Nc2cc(F)nc(F)c2)cc2cn[nH]c12` (stereo not shown) [Compound P-8, 5-[(2,6-difluoro-4-pyridyl)amino]-N-(2,2-dimethylcyclobutyl)-1H-pyrazolo[3,4-c]pyridine-7-carboxamide], the melting point was in the range of 240 to 250 °C. The inhibition of growth at 20 ppm in data set [1] is not below 80%.

`CCCCCNC(=O)c1nc(Nc2cncc(F)c2)cc2cc[nH]c12` [Compound P-10, 5-[(5-fluoro-3-pyridyl)amino]-N-pentyl-1H-pyrrolo[2,3-c]pyridine-7-carboxamide]: the melting point lay in the range of 158 to 162 °C.

`CCCCCNC(=O)c1nc(Nc2cc(F)nc(F)c2)cc2cc[nH]c12` [Compound P-11, 5-[(2,6-difluoro-4-pyridyl)amino]-N-pentyl-1H-pyrrolo[2,3-c]pyridine-7-carboxamide] registered a melting point of 220 to 233 °C.

`CCCCCNC(=O)c1nc(Nc2cncc(F)c2)cc2cn[nH]c12` [Compound P-13, 5-[(5-fluoro-3-pyridyl)amino]-N-pentyl-1H-pyrazolo[3,4-c]pyridine-7-carboxamide] registered a melting point of 155 to 168 °C.

`O=C(NC1CCC12CCCC2)c1nc(Nc2cncc(F)c2)cc2cn[nH]c12` (stereo not shown) [Compound P-15, 5-[(5-fluoro-3-pyridyl)amino]-N-spiro[3.4]octan-3-yl-1H-pyrazolo[3,4-c]pyridine-7-carboxamide]: the melting point was 185 to 195 °C.

`O=C(NC1CCC12CCCC2)c1nc(Nc2cncc(F)c2)cc2cc[nH]c12` (stereo not shown) [Compound P-17, 5-[(5-fluoro-3-pyridyl)amino]-N-spiro[3.4]octan-3-yl-1H-pyrrolo[2,3-c]pyridine-7-carboxamide] came in with a melting point of 180 to 191 °C.

Consider `O=C(NC1CCC12CCCC2)c1nc(Nc2cc(F)nc(F)c2)cc2cc[nH]c12` (stereo not shown) [Compound P-18, 5-[(2,6-difluoro-4-pyridyl)amino]-N-spiro[3.4]octan-3-yl-1H-pyrrolo[2,3-c]pyridine-7-carboxamide], for which the melting point fell in the range of 170 to 178 °C. Moreover, in data set [1], the inhibition of growth at 20 ppm is not below 80%.

Compound `O=C(NC1CCC12CCCC2)c1nc(Nc2cc(F)nc(F)c2)cc2cn[nH]c12` (stereo not shown) [Compound P-19, 5-[(2,6-difluoro-4-pyridyl)amino]-N-spiro[3.4]octan-3-yl-1H-pyrazolo[3,4-c]pyridine-7-carboxamide] showed a melting point of 168 to 180 °C. Besides, the inhibition of growth at 20 ppm in data set [1] is not below 80%.
